Where “and” joins values, the source holds several entries; their conditions need not be identical. Equal entries are not always repeated. Where two headings read alike, the source gives them in different places.
Key:
HL-60 = test: cells; conditions: Homo sapiens, HL-60, 48 h
MES-SA/Dx5 = test: Cell growth inhibition assay (resazurin, 48 h)
Protocol: (§1) Concentrations ranging from 6.32 μM to 2 nM were tested for II-2 and II-4.
The multidrug resistant MES-SA/Dx5 tumor cell line was derived from the human uterine sarcoma MES-SA tumor cell line and expresses elevated P-Glycoprotein (P-gp), an ATP dependent efflux pump.

[1] = target: T1, proteasome chymotrypsin-like activity in packed whole blood lysate (Mus musculus, UniProt O55234); test: Proteasome activity in packed whole blood lysate (PWBL) of treated mice; type: in vivo; conditions: 90 minutes
T1 construct: The supernatant (Packed Whole Blood Lysate, PWBL) was transferred to a fresh tube; from tissue; host or cells: packed whole blood cells of Swiss-Webster mice (lysate)
T1 sequence (O55234 60-264): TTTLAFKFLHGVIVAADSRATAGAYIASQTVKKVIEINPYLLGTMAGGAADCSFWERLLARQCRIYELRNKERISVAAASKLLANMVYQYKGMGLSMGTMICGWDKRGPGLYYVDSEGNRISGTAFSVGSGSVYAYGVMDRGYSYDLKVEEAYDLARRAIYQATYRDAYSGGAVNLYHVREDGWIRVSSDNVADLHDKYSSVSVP
Protocol: In brief, frozen whole blood samples were thawed on ice for one hour, and resuspended in 700 μL of ice cold 5 mM EDTA, pH 8.0 in order to lyse the cells by hypotonic shock. This represents approximately 2-3 times the volume of the packed whole blood cells. Lysis was allowed to proceed for one hour, and the cellular debris was removed by centrifugation at 14,000×g for 10 minutes. The supernatant (Packed Whole Blood Lysate, PWBL) was transferred to a fresh tube, and the pellet discarded. Protein concentration of the PWBL was determined by BCA assay (Pierce) using BSA as a standard.
Proteasome activity was determined by measuring the hydrolysis of a fluorogenic substrate specific for the chymotrypsin-like activity of proteasomes (suc-LLVY-AMC, Bachem Cat. I-1395). […] Hydrolysis of the substrate results in the release of free AMC, which was measured fluorometrically by using λex=390 nm and λem=460 nm. The rate of hydrolysis in this system is linear for at least one hour. The hydrolysis rate of each sample is then normalized to relative fluorescent units per milligram of protein (RFU/mg).
The vehicle control consisted of 2% DMSO in 10% solutol. […] Packed whole blood cells were collected by centrifugation, washed with PBS, and re-centrifuged. All samples were stored at −80° C. prior to the evaluation of the proteasome activity. […]

PANC-1 = test: Cell growth inhibition assay (resazurin, 48 h); type: cell-based; conditions: Homo sapiens, PANC-1, 48 h
[2] = tested on: MM.1R and Doxorubicin-resistant Dox-40 cell lines
IκBα = test: Western blot of total and phosphorylated IκBα, HEK293 and NF-κB/Luc 293 cells; type: cell-based, human; conditions: 50 and 500 nM, 1 hour pre-treatment
Protocol: Endogenous protein levels were assessed in both HEK293 cells and the NF-κB/Luc 293 reporter clone.
Antibodies against total and phosphorylated forms of IκBα were used to determine the endogenous level of each protein and anti-Tubulin antibody was used to confirm equal loading of protein.

MIA PaCa-2 = test: Cell growth inhibition assay (resazurin, 48 h); type: cell-based; conditions: Homo sapiens, MIA PaCa-2, 48 h
LogD7.4 determination = conditions: pH 7.4
Excerpt: These studies consisted of solubility assessment, LogD^7.4 determination and a preliminary screen to detect cytochrome P450 enzyme inhibition.

[3] = tested on: 20S proteasome chymotrypsin-like activity in RPMI 8226 cells; test: Chymotrypsin-like activity of 20S proteasomes in treated RPMI 8226 cells; type: cell-based, human; conditions: 1 nM, 1 hr
Protocol: RPMI 8226 (ATCC, CCL-155), the human multiple myeloma cell line, was cultured in RPMI 1640 medium supplemented with 2 mM L-glutamine, 100 units/ml penicillin, 100 μg/ml streptomycin, 1 mM sodium pyruvate and 10% heat inactivated fetal bovine serum at 37° C., 5% CO2 and 95% humidified air. […] DMSO was used as the vehicle control at a final concentration of 0.1%. Following 1 hr incubation of RMPI 8226 cells with the compounds, the cells were pelleted by centrifugation at 2,000 rpm for 10 sec at room temperature and washed 3× with ice-cold 1× Dulbecco's Phosphate-Buffered Saline (DPBS, Mediatech, Herndon, Va.). DPBS washed cells were lysed on ice for 15 min in lysis buffer (20 mM HEPES, 0.5 mM EDTA, 0.05% Triton X-100, pH 7.3) supplemented with protease inhibitor cocktail (Roche Diagnostics, Indianapolis, Ind.). Cell debris was pelleted by centrifugation at 14,000 rpm for 10 min, 4° C. and supernatants (=cell lysates) were transferred to a new tube. Protein concentration was determined by the BCA protein assay kit (Pierce Biotechnology, Rockford, Ill.). […] The released coumarin (AMC) was measured fluorometrically by using λex=390 nm and λem=460 nm. The assay was performed in a microtiter plate (Corning 3904) and followed kinetically with measurements every five minutes for 2 hr. The total amount of protein used for each assay was 20 μg. […]

tumor cell lines = test: Growth inhibition / cytotoxicity, summary over tumor cell lines; type: cell-based
HL-60/MX2 = test: Cell growth inhibition assay (resazurin, 48 h); conditions: for EC50: HL-60/MX2, 48 h
Protocol: The DNA binding agent Mitoxantrone was included as a control, as HL-60/MX2 cells are reported to be resistant to this chemotherapeutic agent (Harker W. G. et al. 1989).
as §1
HL-60/MX2 is a multidrug resistant tumor cell line derived from the human promyelocytic leukemia cell line, HL-60 and expresses reduced topoisomerase II activity. […] Mitoxantrone, the topoisomerase II targeting agent was included as a control.

PC-3 = test: Cell growth inhibition assay (resazurin, 48 h)

Compound: C[C@@]12OC(=O)[C@]1([C@@H](O)[C@@H]1C=CCCC1)NC(=O)[C@@H]2CCCl [Formula II-16, Salinosporamide A]
- EC50 (HL-60): 27 nM
- EC50 (MES-SA/Dx5; Homo sapiens, MES-SA/Dx5, 48 h): 23 ± 1 nM
- % cytotoxicity (MES-SA/Dx5; MES-SA/Dx5): 92 ± 2%
- proteasomal activity in PWBL after oral administration [1]: active upon oral administration
- EC50 (RAW264.7 cells): 3.6 nM
- increase in the viability of LeTx-treated cells compared to LeTx treatment alone (RAW264.7 cells): 10 fold
- EC50 (PANC-1): 60 nM
- activity against drug resistant multiple myeloma [2]: active against MM.1R and Doxorubicin-resistant Dox-40 cell lines
- effect on total IκBα and phospho-IκBα upon TNF-α stimulation (IκBα): reduced the degradation of total IκBα but also retained the phospho-IκBα level
- EC50 (MIA PaCa-2): 46 nM
- LogD7.4 (LogD7.4 determination): 2.4
- % inhibition of the chymotrypsin-like activity of 20S proteasomes in RPMI 8226 cell lysates [3]: 30 ± 7%
- EC50 (tumor cell lines; RPMI 8226, PC-3, DU 145, 48 hour, read-out: EC50 values against RPMI 8226 and the prostate cell lines, range): 10 to 37 nM
- EC50 (tumor cell lines; read-out: EC50 values for cytotoxicity, range): 10 to 200 nM
- % cytotoxicity (HL-60/MX2; HL-60/MX2): 84% and 89%
- EC50 (HL-60/MX2): 25 nM
- EC50 (HL-60/MX2; Homo sapiens, HL60/MX2, 48 h): 28 nM
- % cytotoxicity (PC-3; PC-3): 88% and 89%
- EC50 (PC-3; PC-3, 48 h): 64 ± 26 nM
